Marks after values point to notes of the source that are not given here.
Tests used:
Assay type in all cases: in vivo
Botrytis cinerea = experiment: Test C: tomato Botrytis on tomato seedlings, sprayed the day before inoculation, visual disease rating; conditions: 100 = 100% disease control
In short: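 Spray to run-off on tomato seedlings; test conc. 200 ppm (≈500 g/ha), some entries 40 ppm. Formulation: acetone 3% of final vol., then acetone/water 50:50 + 250 ppm polyhydric alcohol ester surfactant.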

Septoria nodorum = experiment: Test F: wheat glume blotch on wheat seedlings, sprayed the day before inoculation, visual disease rating; conditions: 100 = 100% disease control
In short: (§1)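 Spray suspension: acetone 3% of final volume, then 50/50 acetone/water plus 250 ppm Trem® 014. Applied to run-off on seedlings at 200 ppm (≈500 g/ha); starred entries tested at 40 ppm.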

[1] = tested on: Erysiphe graminis f. sp. tritici; experiment: Test J: wheat powdery mildew on wheat seedlings, sprayed the day before inoculation, visual disease rating; conditions: 100 = 100% disease control
In short: as §1

Septoria tritici = experiment: Test G: wheat leaf blotch on wheat seedlings, sprayed the day before inoculation, visual disease rating; conditions: 200 ppm; 100 = 100% disease control, 0 = no control relative to controls
In short: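 Compounds dissolved in acetone (3% of final volume), then suspended in 50/50 acetone/water with 250 ppm Trem® 014 and sprayed to run-off on seedlings at 200 ppm (≈500 g/ha) or 40 ppm where marked. Inoculation with spores followed next day; visual rating after 48 h saturated at 24° C plus 19 days at 20° C.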

[2] = tested on: Puccinia recondita f. sp. tritici; experiment: Test H: wheat leaf rust, test suspension sprayed after inoculation of wheat seedlings, visual disease rating; conditions: 100 = 100% disease control
In short: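 Wheat seedlings inoculated with P. recondita spores, held 24 h saturated at 20 °C, then 2 days in growth chamber at 20 °C; compound suspension (acetone/water with Trem 014) sprayed to run-off afterwards. Rated visually; 200 ppm (≈500 g/ha) unless marked *, which denotes 40 ppm.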

Alternaria solani = experiment: Test D: tomato early blight, sprayed the day before inoculation, visual disease rating; conditions: 100 = 100% disease control
In short: as §1

[3] = tested on: Puccinia recondita f. sp. tritici; experiment: Test I: wheat leaf rust on wheat seedlings, sprayed the day before inoculation, visual disease rating; conditions: 100 = 100% disease control
In short: as §1

[4] = 200 ppm, 0 = no control relative to controls

SMILES | Test C disease control rating (Botrytis cinerea; [4]) [%] | Test F disease control rating (Septoria nodorum; [4]) [%] | Test J disease control rating [1, 4] [%] | Test G disease control rating (Septoria tritici) [%] | Test H disease control rating [2, 4] [%] | Test D disease control rating (Alternaria solani; [4]) [%] | Test I disease control rating [3, 4] [%] | Test C disease control rating (Botrytis cinerea; 40 ppm (marked *)) | Test F disease control rating (Septoria nodorum; 40 ppm (marked *)) | Test J disease control rating ([1]; 40 ppm (marked *)) | Test H disease control rating ([2]; 40 ppm (marked *)) | Test D disease control rating (Alternaria solani; 40 ppm (marked *)) | Test I disease control rating ([3]; 40 ppm (marked *))
COc1cc(F)c(-c2c(Br)nc(Cl)n2-c2ccc(C(F)(F)F)nc2)c(F)c1 [compound 706] | 57 | 0 | 100 | 99 | 25 | 100 | 86 | – | – | – | – | – | –
Cc1nc(Cl)c(-c2ccc(Cl)cc2)n1-c1c(F)cc([N+](=O)[O-])cc1F [compound 708] | 100 | 82 | 89 | 99 | 7 | 0 | 80 | – | – | – | – | – | –
COc1ccc(F)c(-c2c(Cl)nc(Cl)n2-c2ccc(Cl)nc2)c1F [compound 709] | 100 | 100 | 100 | 99 | 100 | 100 | 100 | – | – | – | – | – | –
COc1cc(F)c(-c2c(Br)nc(Cl)n2-c2ccc(OC)nc2)c(F)c1 [compound 710] | 100 | 100 | 98 | 98 | 99 | 100 | 100 | – | – | – | – | – | –
Fc1cccc(F)c1-c1c(Cl)nc(Br)n1-c1ccc(Cl)nc1 [compound 711] | 100 | 99 | 99 | 99 | 98 | 100 | 99 | – | – | – | – | – | –
COc1cc(F)c(-n2c(Cl)nc(CCl)c2-c2cccc(F)c2)c(F)c1 [compound 712] | – | – | – | 95 | – | – | – | 100* % | 0* % | 61* % | 7* % | 57* % | 86* %
COc1cc(F)c(-c2c(Cl)nc(C)n2-c2ccc(OC)nc2)c(F)c1 [compound 714] | 100 | 100 | 100 | 99 | 100 | 100 | 100 | – | – | – | – | – | –
Cc1nc(Br)n(-c2ccc(Cl)nc2)c1-c1c(F)ccc(C#N)c1F [compound 715] | 100 | 78 | 73 | 99 | 100 | 100 | 99 | – | – | – | – | – | –
Cc1nc(Cl)n(-c2ccc(Cl)nc2)c1-c1c(F)ccc(C#N)c1F [compound 716] | 100 | 95 | 99 | 100 | 100 | 100 | 99 | – | – | – | – | – | –
N#Cc1ccc(F)c(-c2c(CCl)nc(Cl)n2-c2ccc(Cl)nc2)c1F [compound 717] | 100 | 0 | 79 | 99 | 0 | 100 | 96 | – | – | – | – | – | –
COc1ccc(-n2c(Cl)nc(C)c2-c2c(F)cccc2F)cn1 [compound 718] | 100 | 97 | 100 | 100 | 99 | 100 | 100 | – | – | – | – | – | –
COc1ccc(-n2c(Br)nc(C)c2-c2c(F)cccc2F)cn1 [compound 719] | 99 | 98 | 100 | 99 | 99 | 100 | 100 | – | – | – | – | – | –
CCOc1cc(F)c(-c2c(Cl)ncn2-c2ccc(C)cc2)c(F)c1 [compound 723] | 100 | 0 | 95 | 97 | 66 | 99 | 68 | – | – | – | – | – | –
CCOc1ccc(F)c(-c2c(Cl)nc(C)n2-c2cccc(F)c2)c1F [compound 724] | 100 | 97 | 99 | 98 | 0 | 100 | 100 | – | – | – | – | – | –
COc1ccc(-c2c(Cl)nc(Br)n2-c2ccc(F)cc2)c(Cl)c1 [compound 725] | 100 | 73 | 98 | 99 | 15 | 99 | 91 | – | – | – | – | – | –
COc1ccc(-c2c(Cl)ncn2-c2ccc(F)cc2)c(Cl)c1 [compound 726] | 99 | 0 | 89 | 99 | 0 | 99 | 80 | – | – | – | – | – | –
COc1cc(F)c(-c2c(Cl)nc(Cl)n2C(C)c2ncc(Cl)cc2Cl)c(F)c1 (stereo not shown) [compound 727] | 98 | 0 | 21 | 89 | 15 | 0 | 74 | – | – | – | – | – | –
COc1cc(F)c(-c2c(Cl)nc(Cl)n2-c2cncc(F)c2)c(F)c1 [compound 728] | 100 | 100 | 100 | 99 | 100 | 100 | 100 | – | – | – | – | – | –
COc1ccc(F)c(-c2c(Cl)nc(Br)n2-c2ccc(Cl)nc2)c1F [compound 730] | 100 | 99 | 100 | 100 | 9 | 100 | 99 | – | – | – | – | – | –
COc1cc(F)c(-c2c(C)nc(Br)n2-c2ccc(C(F)(F)F)nc2)c(F)c1 [compound 731] | 99 | 99 | 100 | 100 | 0 | 100 | 99 | – | – | – | – | – | –
COc1cc(F)c(-c2c(C)nc(Cl)n2-c2ccc(C(F)(F)F)nc2)c(F)c1 [compound 732] | 100 | 100 | 100 | 99 | 0 | 100 | 99 | – | – | – | – | – | –
COc1ccc(F)c(-c2c(C)nc(Cl)n2-c2ccc(Cl)nc2)c1F [compound 733] | 100 | 100 | 100 | 100 | 41 | 100 | 100 | – | – | – | – | – | –
COc1ccc(F)c(-c2c(C)nc(Br)n2-c2ccc(Cl)nc2)c1F [compound 735] | 100 | 99 | 100 | 100 | 9 | 100 | 100 | – | – | – | – | – | –
COc1cc(F)c(-c2c(C)nc(Br)n2-c2ccc(OC)nc2)c(F)c1 [compound 736] | 99 | 97 | 100 | 100 | 99 | 100 | 100 | – | – | – | – | – | –
COc1cc(F)c(-c2c(C)nc(Cl)n2-c2ccc(OC)nc2)c(F)c1 [compound 737] | 100 | 100 | 100 | 100 | 100 | 100 | 100 | – | – | – | – | – | –
